In PMC6322304, “Phytohormone treatment induces generation of cryptic peptides with antimicrobial activity in the Moss Physcomitrella patens” (BMC Plant Biology, 2019):
Ends that are not written are not given here.

Key:
[1] = system: E. coli and B. subtilis bacteria; format: cell-based, Escherichia coli; Bacillus subtilis
Description: (§1) A serial dilution method in sterile 96 Well Collection Plates (Corning 3870) in liquid MHB medium was used to define the minimum inhibitory concentration (MIC) of the peptides against E. coli K-12 MG 1655 and B. subtilis 168 HT as previously described. Diluted peptide (50 μL) in MHB medium was added to each well at the appropriate concentration (128 to 0.25 μg/mL), along with 50 μL of bacterial suspension at a concentration of 10^6 CFU/mL of microbial cells. The experiment was carried out in three replicates. Liquid MHB medium without the addition of the peptide used as a negative control. The plates were incubated at 37°С for 20 h without mixing. The MIC of the peptides was assessed visually and by measuring the spectrophotometric absorbance at 570 nm to identify the concentration that inhibited the visible growth of bacteria.

E. coli K-12 MG 1655 = format: cell-based, Escherichia coli; details: K-12, 20 h
Description: as §1

B. subtilis 168 HT = format: cell-based, Bacillus subtilis; details: 20 h
Description: as §1

OPR3 gene = assay: qRT-PCR of pathogenesis-related gene in treated protonema; format: cell-based, Physcomitrella patens; details: protonema incubated 1 h; MeJA 50 μM to 1 mM, SA 10 μM to 1 mM (Figure S8)
Description: Protonemata of the moss P. patens subsp. patens (“Gransden 2004”, Freiburg) were grown in 200 mL liquid Knop medium with 500 mg/L ammonium tartrate under white light with a photon flux of 61 μmol/m^2•s under a 16-h photoperiod at 24°C. For mass spectrometry analysis, five-d-old protonema tissue was treated with 0.4 mM MeJA and incubated for 1 h. […] To analyze antimicrobial activity of secretome five-d-old- protonema tissue was treated with different concentration of MeJA. Treatment with cocktail of protease inhibitors was performed according to the dilution 1:200, as recommended by the manufacturer (P1860 Sigma Aldrich, USA). At least three independent biological replicates were used for each type of analysis. To test the gene expression induced by the peptides, five-d-old protonema tissue was treated with either mock solution or 1 μM peptide solution and harvested after 2, 4, 8 and 24 h later. […]
Total RNA from protonemata was isolated as previously described. Quality and quantity were evaluated using electrophoresis on agarose gel with ethidium bromide staining. Total RNA concentration of samples was precisely measured using the Quant-iT™ RNA Assay Kit, 5–100 ng on a Qubit 3.0 (Invitrogen, US) fluorometer. cDNA was synthesized using the MMLV RT kit (Evrogen, Russia) according to the manufacturer’s recommendations. […]

| Compound | concentration at which bacterial growth was inhibited ([1]; on day 1 after inoculation, bacterium not named) [µg/mL] | % inhibition, E. coli (E. coli K-12 MG 1655) [%] | MIC, E. coli (E. coli K-12 MG 1655) [µg/mL] | % inhibition, B. subtilis (B. subtilis 168 HT) [%] | MIC, B. subtilis (B. subtilis 168 HT) [µg/mL] | minimum inhibitory concentration (MIC) ([1]; bacterium not given, serial dilution with E. coli and B. subtilis) [µg/mL] | response of OPR3 transcription to hormone treatment (qRT-PCR) (OPR3 gene) |
| --- | --- | --- | --- | --- | --- | --- | --- |
| KIKVAINGFGRIG [synthetic copy of a cellular moss peptide, fragment of glyceraldehyde-3-phosphate dehydrogenase (GAPDH)] | 128 |  |  |  |  |  |  |
| LVQIGTKIVGVGRNYAAH [LVQIGTKIVGVGRNYAAH] |  | >90 | 64 | >90 | 64 | 64 |  |
| INIINAPLQGFKIA [INIINAPLQGFKIA] |  | >90 | 16 | >90 | 32 |  |  |
| CC/C=C\CC1C(=O)CCC1CC(=O)OC (centres unmarked) [MeJA, methyl jasmonate] |  |  |  |  |  |  | clear response |
